{"source": "ChEMBL document CHEMBL4616720", "about": "(J Med Chem, 2020)", "key": {"[1]": {"assay": "Toxicity in BALB/c nude mouse xenografted with human HCT116 cells assessed as body weight loss at 25 to 50 mg/kg, ip administered every 3 days for 21 days measured on day 7 relative to control", "format": "organism-based, HCT-116", "settings": "in vivo"}, "HCT-116": {"test_system": "HCT-116", "assay": "Antiproliferative activity against human HCT116 cells assessed as reduction in cell growth measured after 48 hrs by CCK8 assay", "format": "functional, cell-based", "settings": "HCT-116, 48 h"}, "A549 [2]": {"test_system": "A549", "assay": "Antiproliferative activity against human A549 cells assessed as reduction in cell growth measured after 48 hrs by CCK8 assay", "format": "functional, cell-based", "settings": "A549, 48 h"}, "MCF7": {"test_system": "MCF7", "assay": "Antiproliferative activity against human MCF7 cells assessed as reduction in cell growth measured after 48 hrs by CCK8 assay", "format": "functional, cell-based", "settings": "MCF7, 48 h"}, "[3]": {"target": "T1, Peptide deformylase, mitochondrial (Homo sapiens) (UniProt Q9HBH1)", "T1 sequence (whole entry)": "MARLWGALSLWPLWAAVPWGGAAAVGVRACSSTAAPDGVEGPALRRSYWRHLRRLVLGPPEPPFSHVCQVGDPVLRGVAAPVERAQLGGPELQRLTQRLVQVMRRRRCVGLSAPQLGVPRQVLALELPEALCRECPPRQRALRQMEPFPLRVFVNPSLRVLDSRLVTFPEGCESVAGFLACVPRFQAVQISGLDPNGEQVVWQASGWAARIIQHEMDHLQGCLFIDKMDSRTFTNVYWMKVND", "assay": "Inhibition of PDF in human MCF7 cells assessed as decrease in mtDNA encoded COX1 protein level measured after 48 hrs by Western blot analysis", "format": "cell-based"}, "A549 [4]": {"test_system": "A549", "assay": "Induction of apoptosis in human A549 cells assessed as late apoptotic cells at 40 uM measured after 48 hrs by Annexin V-FITC/propidium iodide staining based FACSClibur flow cytometry analysis (reference value: 3.63 %)", "format": "functional"}, "A549 [5]": {"test_system": "A549", "assay": "Induction of apoptosis in human A549 cells assessed as necrotic cells at 40 uM measured after 48 hrs by Annexin V-FITC/propidium iodide staining based FACSClibur flow cytometry analysis (reference value: 0.49 %)", "format": "functional"}, "A549 [6]": {"test_system": "A549", "assay": "Induction of apoptosis in human A549 cells assessed as induction of caspase-3 activation at 40 uM using Ac-DEVD-pNA as substrate preincubated for 24 hrs followed by substrate addition and measured after 2 hrs by microplate reader assay", "format": "functional, cell-based"}, "Histone deacetylase 1": {"target": "Histone deacetylase 1 (Homo sapiens, UniProt Q13547)", "sequence (Q13547 whole entry)": "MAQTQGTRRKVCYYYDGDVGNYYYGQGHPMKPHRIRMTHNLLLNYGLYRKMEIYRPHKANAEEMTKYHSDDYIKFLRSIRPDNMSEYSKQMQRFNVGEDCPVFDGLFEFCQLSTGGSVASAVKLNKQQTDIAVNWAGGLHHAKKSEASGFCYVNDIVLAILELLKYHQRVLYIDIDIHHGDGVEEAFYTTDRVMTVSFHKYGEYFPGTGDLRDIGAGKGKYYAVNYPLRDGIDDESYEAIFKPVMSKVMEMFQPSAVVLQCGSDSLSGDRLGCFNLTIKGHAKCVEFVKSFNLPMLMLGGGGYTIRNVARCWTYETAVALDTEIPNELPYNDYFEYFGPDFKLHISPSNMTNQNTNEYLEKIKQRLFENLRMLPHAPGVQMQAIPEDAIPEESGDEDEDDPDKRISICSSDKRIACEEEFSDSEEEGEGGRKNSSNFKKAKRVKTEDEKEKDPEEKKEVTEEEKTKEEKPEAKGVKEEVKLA", "assay": "Inhibition of HDAC1 (unknown origin) using Boc-Lys(Ac)-pNA as substrate preincubated for 20 mins followed by substrate addition and further incubated for 90 mins by fluorescence assay"}, "[7]": {"assay": "Drug concentration in plasma of Sprague-Dawley rat at 2 mg/kg, iv measured after 5 mins by LC-MS/MS analysis", "format": "ADME, organism-based"}, "[8]": {"assay": "Terminal half life in Sprague-Dawley rat at 2 mg/kg, iv measured up to 24 hrs by LC-MS/MS analysis", "format": "ADME, organism-based", "settings": "in vivo, read-out: beta t1/2 (converted)"}, "[9]": {"assay": "Oral bioavailability in Sprague-Dawley rat at 20 mg/kg measured up to 24 hrs by LC-MS/MS analysis", "format": "ADME, organism-based", "settings": "in vivo"}, "[10]": {"assay": "Selectivity index, ratio of IC50 for human MCF10A cells assessed as reduction in cell growth measured after 48 hrs by CCK8 assay to IC50 for human HCT116 cells assessed as reduction in cell growth measured after 48 hrs by CCK8", "format": "toxicity", "settings": "MCF10A cells versus HCT116 cells, read-out: Ratio IC50"}, "[11]": {"assay": "Selectivity index, ratio of IC50 for human MCF10A cells assessed as reduction in cell growth measured after 48 hrs by CCK8 assay to IC50 for human A549 cells assessed as reduction in cell growth measured after 48 hrs by CCK8", "format": "toxicity", "settings": "MCF10A cells versus A549 cells, read-out: Ratio IC50"}, "[12]": {"assay": "Selectivity index, ratio of IC50 for human MCF10A cells assessed as reduction in cell growth measured after 48 hrs by CCK8 assay to IC50 for human SJSA1 cells assessed as reduction in cell growth measured after 48 hrs by CCK8", "format": "toxicity", "settings": "MCF10A cells versus SJSA1 cells, read-out: Ratio IC50"}, "[13]": {"assay": "Selectivity index, ratio of IC50 for human MCF10A cells assessed as reduction in cell growth measured after 48 hrs by CCK8 assay to IC50 for human HL60 cells assessed as reduction in cell growth measured after 48 hrs by CCK8", "format": "toxicity", "settings": "MCF10A cells versus HL60 cells, read-out: Ratio IC50"}, "[14]": {"assay": "Toxicity in KM mouse assessed as weight loss at 262.1 to 640 mg/kg, ip administered as single dose measured 3 times per week for 14 days", "format": "organism-based", "settings": "in vivo, 336 h"}}, "note": "Active and inactive are the calls of the source. No cut-off for these calls is given here.", "data": [{"smiles": "O=C(C[C@@H](CC1CCCC1)C(=O)N1CC2(CC2)C[C@H]1c1nc(-c2ccc(F)cc2C(F)(F)F)no1)NO", "values": [{"measurement": "Activity", "setting": "[1]", "result": 5, "unit": "%"}, {"measurement": "IC50", "setting": "HCT-116", "result": 1980, "unit": "nM"}, {"measurement": "IC50", "setting": "A549 [2]", "result": 2580, "unit": "nM"}, {"measurement": "IC50", "setting": "MCF7", "result": 4650, "unit": "nM"}, {"measurement": "inhibition", "setting": "[3]", "result": "Dose-dependent effect"}, {"measurement": "Activity", "setting": "A549 [4]", "result": 5.55, "unit": "%"}, {"measurement": "Activity", "setting": "A549 [5]", "result": 1.01, "unit": "%"}, {"measurement": "Activity", "setting": "A549 [6]", "result": "inactive"}, {"measurement": "IC50", "setting": "Histone deacetylase 1", "result": "> 10000", "unit": "nM"}, {"measurement": "concentration at 5 min", "setting": "[7]", "result": 136, "unit": "ng/mL"}, {"measurement": "half-life", "setting": "[8]", "result": 3.7, "unit": "h"}, {"measurement": "F", "setting": "[9]", "result": 23.5, "unit": "%"}, {"measurement": "selectivity ratio at 48 h", "setting": "[10]", "result": 9}, {"measurement": "selectivity ratio at 48 h", "setting": "[11]", "result": 9}, {"measurement": "selectivity ratio at 48 h", "setting": "[12]", "result": 9}, {"measurement": "selectivity ratio at 48 h", "setting": "[13]", "result": 9}, {"measurement": "Activity", "setting": "[14]", "result": "Toxic"}]}]}
